# According to patent US7465401B2, “Treatment of chloraminated water” (Water Corporation, priority 2003, dated 2008):
# Columns and labels:
# [1] = tested on: ammonia oxidising bacteria, cultured from a chloraminated system; experiment: Ammonia level over days in a dechlorinated chloraminated water sample dosed with ammonia and ammonia oxidising bacteria; format: cell-based
# Protocol: After the elimination of chlorine, a chloraminated water bulk sample was dosed with excess ammonia to achieve 1.50 mg/L ammonia-N concentration. The bulk sample was dosed with ammonia oxidising bacteria, cultured from a chloraminated system.
# The bulk sample was then subsampled into 9 separate portions. These portions were dosed as follows: • 1. no dosage • 2. 0.1 mg/L copper • 3. 0.2 mg/L copper • 4. 0.3 mg/L copper • 5. 0.2 mg/L zinc • 6. 0.4 mg/L zinc • 7. 0.2 mg/L copper, 0.1 mg/L zinc • 8. 0.1 mg/L copper, 0.2 mg/L zinc • 9. 0.2 mg/L copper, 0.4 mg/L zinc.
# The samples were measured over subsequent days to determine the ammonia levels.
# nitrification = experiment: Field trial: covered reservoir dosed with copper sulphate; ammonia, nitrite and nitrate measured at inlet and outlet; conditions: copper about 0.25 mg/L for six weeks
# Protocol: The levels of ammonia, nitrite and nitrate were measured both at reservoir inlet and outlet.
# [2] = 0.1 mg/L copper, 1.50 mg/L ammonia-N at start
# [3] = 0.2 mg/L copper, 1.50 mg/L ammonia-N at start
# [4] = 0.3 mg/L copper, 1.50 mg/L ammonia-N at start
SMILES,effect of zinc on the efficacy of the copper dose ([1]; zinc 0.1-0.4 mg/L in conjunction with copper 0.1-0.2 mg/L),"time after which the ammonia level begins to fall [1, 2]","time to fall to the base ammonia level of about 0.1 mg/L [1, 2] [days]","time the ammonia level was maintained [1, 3]","time to reach the base ammonia level [1, 3] [days]","time the ammonia level was maintained [1, 4] [days]","time to reach the base ammonia level [1, 4] [days]",microbiological activity following dosing (nitrification),nitrate and nitrite levels at reservoir outlet (nitrification; detention period 3.5 days),percentage of ammonia surviving from inlet to outlet (nitrification; detention period 3.5 days)
[Zn] [zinc],decrease the efficacy of the copper dose,–,–,–,–,–,–,–,–,–
[Cu] [copper],–,about seven,~12,about 15 days,19,34,40,significant reduction,substantial reduction,substantial increase
